Laboratory results taken from ChEMBL document CHEMBL3044788, “α-(Substituted-phenoxyacetoxy)-α-heterocyclylmethylphosphonates: synthesis, herbicidal activity, inhibition on pyruvate dehydrogenase complex (PDHc), and application as postemergent herbicide against broadleaf weeds” (J Agric Food Chem, 2013).

Experiments:
[1] = tested on: Brassica rapa subsp. oleifera; assay: Herbicidal activity against Brassica rapa subsp. oleifera assessed as inhibition of rape root growth; type: functional, organism-based
[2] = tested on: Brassica rapa subsp. oleifera; assay: Herbicidal activity against Brassica rapa subsp. oleifera assessed as inhibition of rape root growth at 450 g/ha by postemergence herbicidal activity assay; type: functional; conditions: post-emergence, read-out: GI
[3] = tested on: Brassica rapa subsp. oleifera; assay: Herbicidal activity against Brassica rapa subsp. oleifera assessed as inhibition of rape root growth at 450 g/ha by pre-emergence herbicidal activity assay; type: functional; conditions: read-out: GI
[4] = tested on: Brassica rapa subsp. oleifera; assay: Herbicidal activity against two to three-leaf stage Brassica rapa subsp. oleifera assessed as inhibition of plant growth at 150 g/ha in greenhouse by postemergence herbicidal activity assay; type: functional; conditions: post-emergence, read-out: GI
Amaranthus retroflexus [5] = assay: Herbicidal activity against 2 to 3 leaf stage Amaranthus retroflexus assessed as inhibition of plant growth at 150 g/ha in greenhouse by postemergence herbicidal activity assay; type: functional; conditions: post-emergence, read-out: GI
Eclipta prostrata [6] = assay: Herbicidal activity against two to three-leaf stage Eclipta prostrata assessed as inhibition of plant growth at 150 g/ha in greenhouse by post-emergence herbicidal activity assay; type: functional; conditions: read-out: GI
Abutilon theophrasti [7] = assay: Herbicidal activity against two to three-leaf stage Abutilon theophrasti (velvetleaf) assessed as inhibition of plant growth at 150 g/ha in greenhouse by post-emergence herbicidal activity assay; type: functional; conditions: read-out: GI
Abutilon theophrasti [8] = assay: Herbicidal activity against two to three-leaf stage Abutilon theophrasti (velvetleaf) assessed as inhibition of plant growth at 450 g/ha in greenhouse by post-emergence herbicidal activity assay; type: functional; conditions: read-out: GI
Amaranthus retroflexus [9] = assay: Herbicidal activity against 2 to 3 leaf stage Amaranthus retroflexus assessed as inhibition of plant growth at 450 g/ha in greenhouse by postemergence herbicidal activity assay; type: functional; conditions: post-emergence, read-out: GI
[10] = tested on: Brassica rapa subsp. oleifera; assay: Herbicidal activity against two to three-leaf stage Brassica rapa subsp. oleifera assessed as inhibition of plant growth at 450 g/ha in greenhouse by postemergence herbicidal activity assay; type: functional; conditions: post-emergence, read-out: GI
Eclipta prostrata [11] = assay: Herbicidal activity against two to three-leaf stage Eclipta prostrata assessed as inhibition of plant growth at 450 g/ha in greenhouse by post-emergence herbicidal activity assay; type: functional; conditions: read-out: GI

| SMILES | IC50 [1] | inhibition of growth at 450 g/ha [2] | inhibition of growth at 450 g/ha [3] | inhibition of growth at 150 g/ha [4] | inhibition of growth at 150 g/ha (Amaranthus retroflexus [5]) | inhibition of growth at 150 g/ha (Eclipta prostrata [6]) | inhibition of growth at 150 g/ha (Abutilon theophrasti [7]) | inhibition of growth at 450 g/ha (Abutilon theophrasti [8]) | inhibition of growth at 450 g/ha (Amaranthus retroflexus [9]) | inhibition of growth at 450 g/ha [10] | inhibition of growth at 450 g/ha (Eclipta prostrata [11]) |
| --- | --- | --- | --- | --- | --- | --- | --- | --- | --- | --- | --- |
| COP(=O)(OC)C(C)=O [DIMETHYL ACETYLPHOSPHONATE] | 1880 µM | 45% | 34% | – | – | – | – | – | – | – | – |
| COP(=O)(OC)C(OC(=O)COc1cccc(C)c1C)c1ccco1 (centres undefined) | – | – | – | 40% | 50% | 30% | 50% | – | – | – | – |
| COP(=O)(OC)C(OC(=O)COc1cc(Cl)c(Cl)cc1Cl)c1ccco1 (centres undefined) | – | – | – | 85% | 75% | 80% | 75% | – | – | – | – |
| COP(=O)(OC)C(OC(=O)COc1ccc(F)cc1Cl)c1ccco1 (centres undefined) | – | – | – | 85% | 90% | 75% | 75% | – | – | – | – |
| COP(=O)(OC)C(OC(=O)COc1cccc(C)c1)c1ccco1 (centres undefined) | – | – | – | 37% | 36% | 30% | 39% | – | – | – | – |
| COP(=O)(OC)C(OC(=O)COc1ccc(C)cc1)c1ccco1 (centres undefined) | – | – | – | 36% | 23% | 30% | 32% | – | – | – | – |
| COP(=O)(OC)C(OC(=O)COc1cc(Cl)c(Cl)cc1Cl)c1cccs1 (centres undefined) | – | – | – | 80% | 80% | 80% | 80% | 85% | 90% | 95% | 50% |
| COP(=O)(OC)C(OC(=O)COc1ccc(F)cc1F)c1cccs1 (centres undefined) | – | – | – | 70% | 60% | 60% | 60% | 75% | 70% | 80% | 70% |
| COP(=O)(OC)C(OC(=O)COc1ccc(C(F)(F)F)cc1)c1ccco1 (centres undefined) | – | – | – | 0% | 0% | 0% | 0% | – | – | – | – |
| COP(=O)(OC)C(OC(=O)COc1ccc(Br)cc1)c1ccco1 (centres undefined) | – | – | – | 75% | 60% | 60% | 40% | – | – | – | – |
| COP(=O)(OC)C(OC(=O)COc1ccc(C(F)(F)F)cc1)c1cccs1 (centres undefined) | – | – | – | 20% | 20% | 30% | 15% | – | – | – | – |
| COP(=O)(OC)C(OC(=O)COc1ccc(Cl)c(C)c1)c1cccs1 (centres undefined) | – | – | – | 0% | 50% | 50% | 0% | 60% | 60% | 60% | 70% |
| COP(=O)(OC)C(OC(=O)COc1ccc(Cl)cc1C)c1cccs1 (centres undefined) | – | – | – | 80% | 80% | 75% | 60% | 90% | 100% | 95% | 100% |
| COP(=O)(OC)C(OC(=O)COc1cccc(C(F)(F)F)c1)c1cccs1 (centres undefined) | – | – | – | 30% | 20% | 15% | 20% | – | – | – | – |
| COP(=O)(OC)C(OC(=O)COc1ccc(Br)cc1)c1cccs1 (centres undefined) | – | – | – | 70% | 50% | 60% | 50% | 70% | 60% | 75% | 60% |
| COP(=O)(OC)C(OC(=O)COc1ccccc1Cl)c1cccs1 (centres undefined) | – | – | – | 0% | 0% | 0% | 0% | 40% | 50% | 30% | 85% |
| COP(=O)(OC)C(OC(=O)COc1ccc(Cl)cc1C)c1ccco1 (centres undefined) | – | – | – | 85% | 80% | 60% | 80% | – | – | – | – |
| COP(=O)(OC)C(OC(=O)COc1ccc(Cl)cc1F)c1cccs1 (centres undefined) | – | – | – | 70% | 70% | 70% | 70% | 75% | 75% | 75% | 90% |
